# Assays:
# [1] = target: cGMP-inhibited 3',5'-cyclic phosphodiesterase 3A (Homo sapiens, UniProt Q14432); type: functional
# [2] = target: T1, Amine oxidase [flavin-containing] A (Homo sapiens, UniProt P21397); type: functional
# T1 sequence (P21397 whole entry): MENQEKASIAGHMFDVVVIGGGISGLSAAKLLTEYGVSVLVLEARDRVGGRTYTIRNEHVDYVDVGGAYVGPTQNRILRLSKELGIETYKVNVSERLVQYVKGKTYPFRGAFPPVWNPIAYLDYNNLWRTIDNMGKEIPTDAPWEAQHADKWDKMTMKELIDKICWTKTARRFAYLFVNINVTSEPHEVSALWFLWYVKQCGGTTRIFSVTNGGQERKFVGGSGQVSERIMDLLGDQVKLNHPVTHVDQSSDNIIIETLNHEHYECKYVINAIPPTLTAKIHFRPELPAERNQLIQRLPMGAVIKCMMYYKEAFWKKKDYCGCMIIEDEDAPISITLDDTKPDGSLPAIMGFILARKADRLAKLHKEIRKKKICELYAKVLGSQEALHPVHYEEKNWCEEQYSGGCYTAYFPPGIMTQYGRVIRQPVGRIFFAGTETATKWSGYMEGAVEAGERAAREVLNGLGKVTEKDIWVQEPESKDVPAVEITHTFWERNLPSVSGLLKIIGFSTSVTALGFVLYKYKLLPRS
# Mu-type opioid receptor = Mu-type opioid receptor (Homo sapiens, UniProt P35372)
# [3] = target: Sodium-dependent dopamine transporter (Homo sapiens, UniProt Q01959)
# [4] = target: T2, Prostaglandin G/H synthase 1 (Homo sapiens, UniProt P23219); type: functional
# Acetylcholinesterase = Acetylcholinesterase (Homo sapiens, UniProt P22303); type: functional
# Thromboxane A2 receptor = target: T3, Thromboxane A2 receptor (Homo sapiens, UniProt P21731); type: functional, cell-based
# T3 sequence (P21731 whole entry): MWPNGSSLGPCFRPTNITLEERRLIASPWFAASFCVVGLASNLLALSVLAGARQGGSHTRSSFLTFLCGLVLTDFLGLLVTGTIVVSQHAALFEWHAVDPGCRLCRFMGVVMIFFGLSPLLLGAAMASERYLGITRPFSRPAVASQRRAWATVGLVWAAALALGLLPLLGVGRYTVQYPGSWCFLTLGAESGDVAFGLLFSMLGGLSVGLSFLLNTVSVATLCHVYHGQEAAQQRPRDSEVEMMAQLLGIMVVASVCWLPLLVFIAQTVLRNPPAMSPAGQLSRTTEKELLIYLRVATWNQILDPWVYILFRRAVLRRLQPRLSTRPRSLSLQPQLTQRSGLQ
# D(1A) dopamine receptor = D(1A) dopamine receptor (Homo sapiens, UniProt P21728)
# [5] = target: 3',5'-cyclic-AMP phosphodiesterase 4A (Homo sapiens, UniProt P27815); type: functional
# D(3) dopamine receptor = D(3) dopamine receptor (Homo sapiens, UniProt P35462)
# [6] = target: T2, Prostaglandin G/H synthase 1; type: functional; remark: listed apart in the source
# Progesterone receptor = target: T4, Progesterone receptor (Homo sapiens, UniProt P06401)
# T4 sequence (P06401 whole entry): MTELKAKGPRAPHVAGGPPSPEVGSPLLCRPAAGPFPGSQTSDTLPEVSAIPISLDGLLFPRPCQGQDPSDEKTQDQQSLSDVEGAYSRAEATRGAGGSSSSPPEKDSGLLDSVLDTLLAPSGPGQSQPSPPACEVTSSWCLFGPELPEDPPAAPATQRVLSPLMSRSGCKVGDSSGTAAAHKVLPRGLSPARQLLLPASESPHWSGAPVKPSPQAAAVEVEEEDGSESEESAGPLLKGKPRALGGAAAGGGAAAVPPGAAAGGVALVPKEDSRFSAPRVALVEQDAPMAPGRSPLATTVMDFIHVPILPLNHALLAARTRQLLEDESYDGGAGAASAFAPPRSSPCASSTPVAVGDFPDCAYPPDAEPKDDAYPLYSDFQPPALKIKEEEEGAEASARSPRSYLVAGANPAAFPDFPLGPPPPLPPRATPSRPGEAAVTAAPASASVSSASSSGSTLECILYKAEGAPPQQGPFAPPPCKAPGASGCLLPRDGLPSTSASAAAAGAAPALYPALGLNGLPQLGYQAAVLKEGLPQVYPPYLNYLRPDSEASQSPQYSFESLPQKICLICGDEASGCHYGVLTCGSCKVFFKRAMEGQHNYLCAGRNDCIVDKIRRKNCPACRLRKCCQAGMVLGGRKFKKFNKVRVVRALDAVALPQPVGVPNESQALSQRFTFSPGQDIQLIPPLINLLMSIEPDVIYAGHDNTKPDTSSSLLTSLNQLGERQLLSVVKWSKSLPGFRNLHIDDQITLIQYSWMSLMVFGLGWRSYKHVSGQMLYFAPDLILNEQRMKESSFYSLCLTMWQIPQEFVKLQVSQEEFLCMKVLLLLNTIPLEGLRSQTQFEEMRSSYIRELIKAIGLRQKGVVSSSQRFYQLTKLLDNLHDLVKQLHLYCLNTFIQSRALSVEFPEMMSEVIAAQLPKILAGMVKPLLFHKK
# [7] = target: T5, Alpha-1A adrenergic receptor (Homo sapiens, UniProt P35348); type: functional, cell-based
# T5 sequence (P35348 whole entry): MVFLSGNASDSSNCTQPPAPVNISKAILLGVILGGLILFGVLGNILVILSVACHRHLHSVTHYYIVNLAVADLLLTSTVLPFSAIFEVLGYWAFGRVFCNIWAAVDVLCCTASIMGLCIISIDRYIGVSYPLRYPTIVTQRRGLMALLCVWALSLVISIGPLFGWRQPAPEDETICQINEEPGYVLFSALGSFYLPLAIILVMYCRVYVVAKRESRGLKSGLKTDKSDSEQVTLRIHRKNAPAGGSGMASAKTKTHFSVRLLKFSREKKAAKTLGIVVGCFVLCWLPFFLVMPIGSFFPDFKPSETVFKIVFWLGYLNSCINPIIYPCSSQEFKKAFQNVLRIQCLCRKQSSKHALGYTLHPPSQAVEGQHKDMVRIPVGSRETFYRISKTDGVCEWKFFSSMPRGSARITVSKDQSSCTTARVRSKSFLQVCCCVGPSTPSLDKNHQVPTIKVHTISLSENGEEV
# Prothrombin = Prothrombin (Homo sapiens, UniProt P00734); type: functional
# [8] = target: Voltage-gated inwardly rectifying potassium channel KCNH2 (Homo sapiens, UniProt Q12809); type: functional
# Also: assay procedure not described here.
# Sodium-dependent dopamine transporter, sequence (Q01959 whole entry): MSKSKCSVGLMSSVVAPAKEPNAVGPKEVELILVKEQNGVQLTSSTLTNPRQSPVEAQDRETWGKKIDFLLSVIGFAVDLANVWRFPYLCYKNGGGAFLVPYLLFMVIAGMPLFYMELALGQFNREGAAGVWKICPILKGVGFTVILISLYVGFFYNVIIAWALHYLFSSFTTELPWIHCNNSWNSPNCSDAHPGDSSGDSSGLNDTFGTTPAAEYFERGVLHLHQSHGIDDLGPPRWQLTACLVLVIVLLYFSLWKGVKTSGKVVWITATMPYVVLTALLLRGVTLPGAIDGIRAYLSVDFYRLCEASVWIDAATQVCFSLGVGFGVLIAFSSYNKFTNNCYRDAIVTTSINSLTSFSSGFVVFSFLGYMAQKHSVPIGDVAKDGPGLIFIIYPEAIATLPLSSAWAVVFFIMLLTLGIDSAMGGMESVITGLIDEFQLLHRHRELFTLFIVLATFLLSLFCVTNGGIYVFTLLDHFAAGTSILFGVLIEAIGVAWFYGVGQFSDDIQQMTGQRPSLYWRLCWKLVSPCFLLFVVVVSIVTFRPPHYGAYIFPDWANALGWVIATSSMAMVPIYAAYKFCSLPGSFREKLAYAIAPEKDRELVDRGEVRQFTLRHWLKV
# D(1A) dopamine receptor, sequence (P21728 whole entry): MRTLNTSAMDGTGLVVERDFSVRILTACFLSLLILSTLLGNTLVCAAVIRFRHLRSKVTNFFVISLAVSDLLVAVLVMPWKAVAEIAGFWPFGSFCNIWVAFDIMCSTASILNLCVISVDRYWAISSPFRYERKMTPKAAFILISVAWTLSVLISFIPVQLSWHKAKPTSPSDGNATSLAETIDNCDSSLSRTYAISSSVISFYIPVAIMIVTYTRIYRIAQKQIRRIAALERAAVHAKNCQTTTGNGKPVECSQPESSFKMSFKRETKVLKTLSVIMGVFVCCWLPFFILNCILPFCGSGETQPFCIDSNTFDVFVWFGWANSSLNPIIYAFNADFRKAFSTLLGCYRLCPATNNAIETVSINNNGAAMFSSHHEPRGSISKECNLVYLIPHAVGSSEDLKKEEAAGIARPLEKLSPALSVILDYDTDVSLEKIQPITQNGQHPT
# Mu-type opioid receptor, sequence (P35372 whole entry): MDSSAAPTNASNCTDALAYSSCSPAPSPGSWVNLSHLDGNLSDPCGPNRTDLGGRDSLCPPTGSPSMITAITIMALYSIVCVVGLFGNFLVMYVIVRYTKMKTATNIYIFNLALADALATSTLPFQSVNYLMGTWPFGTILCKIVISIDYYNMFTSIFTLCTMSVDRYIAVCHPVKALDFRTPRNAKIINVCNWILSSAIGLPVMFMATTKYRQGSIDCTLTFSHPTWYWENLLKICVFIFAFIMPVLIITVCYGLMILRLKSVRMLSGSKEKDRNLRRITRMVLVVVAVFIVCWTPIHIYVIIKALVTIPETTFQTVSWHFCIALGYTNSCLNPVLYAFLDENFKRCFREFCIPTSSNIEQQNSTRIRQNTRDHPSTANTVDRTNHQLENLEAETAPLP
# Voltage-gated inwardly rectifying potassium channel KCNH2, sequence (Q12809 whole entry): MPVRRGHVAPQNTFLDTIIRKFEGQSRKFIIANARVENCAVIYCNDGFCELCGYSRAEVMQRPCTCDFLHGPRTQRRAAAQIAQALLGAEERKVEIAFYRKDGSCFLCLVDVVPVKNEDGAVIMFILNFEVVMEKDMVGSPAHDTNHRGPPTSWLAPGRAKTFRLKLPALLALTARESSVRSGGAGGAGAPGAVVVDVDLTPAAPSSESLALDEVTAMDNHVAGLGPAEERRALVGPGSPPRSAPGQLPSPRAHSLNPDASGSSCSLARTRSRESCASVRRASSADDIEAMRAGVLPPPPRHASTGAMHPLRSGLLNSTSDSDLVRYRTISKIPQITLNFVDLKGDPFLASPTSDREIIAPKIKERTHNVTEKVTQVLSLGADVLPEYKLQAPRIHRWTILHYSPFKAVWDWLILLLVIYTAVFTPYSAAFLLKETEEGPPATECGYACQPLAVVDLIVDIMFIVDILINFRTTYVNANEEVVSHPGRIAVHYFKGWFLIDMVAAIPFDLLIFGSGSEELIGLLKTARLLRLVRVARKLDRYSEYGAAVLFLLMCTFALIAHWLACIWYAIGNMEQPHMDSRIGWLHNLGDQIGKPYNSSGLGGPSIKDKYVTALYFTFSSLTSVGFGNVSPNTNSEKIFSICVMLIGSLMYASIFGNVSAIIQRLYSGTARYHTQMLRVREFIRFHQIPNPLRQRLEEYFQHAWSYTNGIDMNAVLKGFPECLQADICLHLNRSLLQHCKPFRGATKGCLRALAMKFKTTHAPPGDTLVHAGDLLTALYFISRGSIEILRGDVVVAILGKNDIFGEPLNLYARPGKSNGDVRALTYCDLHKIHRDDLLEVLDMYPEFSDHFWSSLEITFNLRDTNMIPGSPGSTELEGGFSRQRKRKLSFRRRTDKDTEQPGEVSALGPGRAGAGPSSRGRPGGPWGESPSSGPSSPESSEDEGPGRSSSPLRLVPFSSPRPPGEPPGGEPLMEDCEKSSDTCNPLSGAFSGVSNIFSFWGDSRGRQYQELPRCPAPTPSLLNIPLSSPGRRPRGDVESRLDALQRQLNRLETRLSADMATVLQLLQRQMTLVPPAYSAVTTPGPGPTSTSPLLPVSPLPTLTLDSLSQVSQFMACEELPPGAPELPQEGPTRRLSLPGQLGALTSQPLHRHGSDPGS
# D(3) dopamine receptor, sequence (P35462 whole entry): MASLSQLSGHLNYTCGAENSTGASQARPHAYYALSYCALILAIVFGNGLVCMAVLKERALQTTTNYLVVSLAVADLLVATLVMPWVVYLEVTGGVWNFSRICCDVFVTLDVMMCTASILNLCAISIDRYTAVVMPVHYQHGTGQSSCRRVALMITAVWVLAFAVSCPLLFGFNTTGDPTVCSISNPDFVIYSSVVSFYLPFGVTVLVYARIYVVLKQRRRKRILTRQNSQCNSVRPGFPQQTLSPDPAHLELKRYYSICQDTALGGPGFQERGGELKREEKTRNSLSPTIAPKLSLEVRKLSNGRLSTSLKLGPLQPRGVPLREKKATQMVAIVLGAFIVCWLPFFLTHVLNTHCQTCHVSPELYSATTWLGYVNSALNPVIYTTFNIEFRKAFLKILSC
# cGMP-inhibited 3',5'-cyclic phosphodiesterase 3A, sequence (Q14432 whole entry): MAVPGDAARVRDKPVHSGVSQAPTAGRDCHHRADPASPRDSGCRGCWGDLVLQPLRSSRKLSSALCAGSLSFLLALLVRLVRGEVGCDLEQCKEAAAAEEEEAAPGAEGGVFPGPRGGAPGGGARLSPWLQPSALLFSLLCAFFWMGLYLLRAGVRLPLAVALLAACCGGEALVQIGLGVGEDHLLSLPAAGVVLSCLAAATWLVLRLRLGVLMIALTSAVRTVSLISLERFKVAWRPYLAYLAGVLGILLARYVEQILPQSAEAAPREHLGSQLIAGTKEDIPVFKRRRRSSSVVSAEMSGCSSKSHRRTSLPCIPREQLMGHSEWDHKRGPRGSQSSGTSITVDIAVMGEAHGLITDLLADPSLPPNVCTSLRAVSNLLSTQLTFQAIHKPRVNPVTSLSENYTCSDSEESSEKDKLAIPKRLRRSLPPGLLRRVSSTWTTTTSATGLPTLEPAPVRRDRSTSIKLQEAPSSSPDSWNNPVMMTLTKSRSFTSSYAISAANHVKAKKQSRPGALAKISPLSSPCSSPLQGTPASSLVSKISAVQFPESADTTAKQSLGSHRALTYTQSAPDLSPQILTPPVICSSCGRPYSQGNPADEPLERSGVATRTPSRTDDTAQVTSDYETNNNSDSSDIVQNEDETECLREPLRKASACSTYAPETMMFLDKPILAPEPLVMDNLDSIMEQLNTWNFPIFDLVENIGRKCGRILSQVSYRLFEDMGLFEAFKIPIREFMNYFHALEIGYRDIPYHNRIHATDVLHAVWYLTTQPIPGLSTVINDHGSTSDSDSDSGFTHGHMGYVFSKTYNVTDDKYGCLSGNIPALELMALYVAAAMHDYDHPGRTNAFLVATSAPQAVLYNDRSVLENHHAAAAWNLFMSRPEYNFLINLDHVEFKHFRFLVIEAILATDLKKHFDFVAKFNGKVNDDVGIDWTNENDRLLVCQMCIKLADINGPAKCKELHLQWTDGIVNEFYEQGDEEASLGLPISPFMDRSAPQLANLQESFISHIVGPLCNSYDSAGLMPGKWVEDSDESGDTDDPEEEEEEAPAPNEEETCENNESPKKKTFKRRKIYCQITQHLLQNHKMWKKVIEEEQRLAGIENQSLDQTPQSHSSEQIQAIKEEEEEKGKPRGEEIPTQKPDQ
# T2 sequence (P23219 whole entry): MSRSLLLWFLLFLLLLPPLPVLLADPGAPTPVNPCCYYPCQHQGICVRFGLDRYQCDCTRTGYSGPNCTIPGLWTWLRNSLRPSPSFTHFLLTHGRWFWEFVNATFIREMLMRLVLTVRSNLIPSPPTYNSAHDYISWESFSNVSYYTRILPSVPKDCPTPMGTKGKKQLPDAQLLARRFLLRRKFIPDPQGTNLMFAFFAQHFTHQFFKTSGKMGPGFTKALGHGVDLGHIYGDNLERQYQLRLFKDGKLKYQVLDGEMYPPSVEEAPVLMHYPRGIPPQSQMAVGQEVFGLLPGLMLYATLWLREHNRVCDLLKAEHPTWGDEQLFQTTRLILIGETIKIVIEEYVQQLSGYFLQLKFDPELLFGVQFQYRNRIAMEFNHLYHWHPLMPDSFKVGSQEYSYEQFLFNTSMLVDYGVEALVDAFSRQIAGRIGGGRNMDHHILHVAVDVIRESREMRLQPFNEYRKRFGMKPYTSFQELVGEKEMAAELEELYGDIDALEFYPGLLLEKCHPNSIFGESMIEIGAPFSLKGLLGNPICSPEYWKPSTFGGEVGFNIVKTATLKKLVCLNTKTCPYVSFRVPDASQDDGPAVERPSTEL
SMILES,AC50 [1],AC50 [2],AC50 (Mu-type opioid receptor),AC50 [3],AC50 [4],AC50 (Acetylcholinesterase),AC50 (Thromboxane A2 receptor),AC50 (D(1A) dopamine receptor),AC50 [5],AC50 (D(3) dopamine receptor),AC50 [6],AC50 (Progesterone receptor),AC50 [7],AC50 (Prothrombin),AC50 [8]
N=C(N)N/N=C/c1c(Cl)cccc1Cl [GUANABENZ],> 30 µM,3.21 µM,5.18 µM,12.8 µM,> 30 µM,> 30 µM,> 30 µM,8.03 µM,> 30 µM,10.5 µM,> 30 µM,> 30 µM,0.0423 µM,> 30 µM,> 30 µM
CCCCC(CC)CN1CN(CC(CC)CCCC)CC(C)(N)C1 (stereo not given) [HEXETIDINE],> 30 µM,> 30 µM,4.86 µM,4.6 µM,> 30 µM,> 30 µM,> 30 µM,> 30 µM,> 30 µM,4.84 µM,> 30 µM,> 30 µM,> 30 µM,> 30 µM,0.75 µM
Cc1cc(=O)oc2cc(O)ccc12 [HYMECROMONE],> 30 µM,> 30 µM,> 30 µM,> 30 µM,> 30 µM,> 30 µM,> 30 µM,> 30 µM,> 30 µM,> 30 µM,> 30 µM,> 30 µM,> 30 µM,> 3 µM,> 30 µM
COc1cc(C(C)=O)ccc1OCCCN1CCC(c2noc3cc(F)ccc23)CC1 [ILOPERIDONE],> 30 µM,> 30 µM,4.11 µM,5.94 µM,> 30 µM,15.9 µM,> 10 µM,0.01 µM,> 30 µM,0.0099 µM,> 30 µM,> 30 µM,> 10 µM,> 30 µM,0.15 µM
COc1c2occc2c(OC)c2c(=O)cc(C)oc12 [KHELLIN],> 30 µM,> 30 µM,> 30 µM,> 30 µM,> 30 µM,> 30 µM,> 30 µM,> 30 µM,2.85 µM,> 30 µM,> 30 µM,> 30 µM,> 30 µM,> 30 µM,> 30 µM
CC(C)[C@@H]1CC[C@@H](C)C[C@H]1O [LEVOMENTHOL],> 30 µM,> 30 µM,> 30 µM,> 30 µM,> 30 µM,> 30 µM,> 30 µM,> 30 µM,> 30 µM,> 30 µM,> 30 µM,> 30 µM,> 30 µM,> 30 µM,> 30 µM
COC(=O)[C@@H](N)Cc1ccc(O)c(O)c1 [MELEVODOPA],> 30 µM,> 30 µM,> 30 µM,> 30 µM,> 30 µM,> 30 µM,> 30 µM,> 30 µM,> 30 µM,> 30 µM,> 30 µM,> 30 µM,> 30 µM,> 30 µM,> 30 µM
C[N+]1(C)CCCC(OC(=O)C(O)(c2ccccc2)c2ccccc2)C1 (stereo not given) [MEPENZOLATE],> 30 µM,> 30 µM,> 30 µM,> 30 µM,> 30 µM,> 30 µM,> 30 µM,> 30 µM,> 30 µM,> 30 µM,> 30 µM,> 30 µM,> 30 µM,> 30 µM,13 µM
C=N[C@@H](C(=O)N[C@@H]1C(=O)N2[C@@H]1SC(C)(C)[C@@H]2C(=O)O)c1ccccc1 [METAMPICILLIN],> 30 µM,> 30 µM,> 30 µM,> 30 µM,9.26 µM,> 30 µM,> 30 µM,> 30 µM,> 30 µM,> 30 µM,11.8 µM,> 30 µM,> 30 µM,> 30 µM,> 30 µM
O=C(NNCS(=O)(=O)O)c1ccncc1 [METHANIAZIDE],> 30 µM,> 30 µM,> 30 µM,> 30 µM,> 30 µM,> 30 µM,> 30 µM,> 30 µM,> 30 µM,> 30 µM,> 30 µM,> 30 µM,> 30 µM,> 30 µM,> 30 µM
Cc1cc(=O)[nH]c(=S)[nH]1 [METHYLTHIOURACIL],> 30 µM,> 30 µM,> 30 µM,> 30 µM,13.1 µM,> 30 µM,> 30 µM,> 30 µM,> 30 µM,> 30 µM,> 30 µM,> 30 µM,> 30 µM,> 30 µM,> 30 µM
CN(C)c1ccc(O)c2c1C[C@H]1C[C@H]3[C@H](N(C)C)C(O)=C(C(N)=O)C(=O)[C@@]3(O)C(O)=C1C2=O [MINOCYCLINE],> 30 µM,> 30 µM,> 30 µM,> 30 µM,> 30 µM,> 30 µM,> 30 µM,> 30 µM,> 30 µM,> 30 µM,2.5 µM,> 30 µM,> 30 µM,> 30 µM,> 30 µM

# — ChEMBL document CHEMBL5291721, “A preclinical secondary pharmacology resource illuminates target-adverse drug reaction associations of marketed drugs” (Nat Commun, 2023)
